Assay results published in patent US9301923B2, “Lipids, lipid compositions, and methods of using them” (NOVARTIS AG, priority 2009, dated 2016).
Where “and” joins values, the source holds several entries; their conditions need not be identical. Equal values may be shown once. Read-outs that look alike come from different tables or passages of the source.

Assays:
[1] = system: PLK-1 mRNA in Hep3B tumors; experiment: Hep3B tumor study, PLK-1 mRNA KD in tumor tissue; assay type: in vivo, human; details: Hep3B tumor, mouse, i.v., LNP composition as in the source
Description: Formulated siRNAs are made up of double stranded siRNA sequences specific to a target mRNA sequence, and are in the form of lipid nucleotid particles (LNPs) containing cationic lipids, stealth lipids and neutral lipids, as provided in the Examples below. The siRNA construct for use in targeting the liver is specific to Factor VII. The siRNA construct for use in targeting tumors is specific to PLK1-424, which is published by Judge et al., See, J Clin Invest. 2009 March; 119(3):661-73; doi: 10.1172/JCI37515). • 1. FVII siRNA duplex sequence
Hep3B tumors are established in female nude mice by sc injection of 7×10^6 cells in 100 ul PBS into the left flank. Mice are randomized into treatment groups 10-14 days after seeding as tumors reached an average size of 100 mm^3. siRNA formulated LNP formulations are administered at various dose levels intravenously via the lateral tail vein calculated on a mg siRNAs/kg basis according to individual animal weights (10 ml/kg injection volume). Mice are euthanized by CO2 inhalation at various time points and the tumors are harvested for mRNA quantitation. Lipids with a wide range of pKa (5.3-6.6) are used in the LNP formulations. Tumors are measured in 2 dimensions (width×length) to assess tumor growth using digital calipers. Tumor volume is calculated using the equation [a×b×b/2], where a equals the largest diameter and b equals the smallest diameter.
About 30-50 mg tumor tissue is homogenized in tissue lysis buffer in a Qiagen homogenizer followed by centrifugation to clarify lysates. Total RNA is isolated using RNeasy isolation kit (catalog number 74106) according to the manufacture's protocol. PLK-1 mRNA is analyzed by quantitative PCR and normalized to human GAPDH. Applied Biosystems human PLK-1 gene expression assay Hs00983229_m1 and human GAPDH endogenous control cat number 4326317E are used for mRNA detection.
The pKa in all tables refers to the pKa of the cationic lipid. Where multiple doses are indicated (e.g., 3×5), the first number indicates the number of doses given and the second number indicates the amount per dose in mg siRNA (biologically active agent) per kg mouse. In general the multiple doses are administered at 24 hour intervals, and tissues for mRNA quantitation are harvested 24 hours after the last dose.

[2] = pKa of the lipid by TNS fluorescence; assay type: physicochemical
Method in brief: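 Lipid dissolved in ethanol (2 mM stock) and measured with TNS across eight buffers of differing pH, in water at standard temperature and pressure. Normalized fluorescence intensity plotted against pH and points joined by a smooth line to derive pKa, precise to about 0.2 units.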

[3] = system: Factor VII; experiment: Factor VII activity assay, in vivo liver delivery of FVII siRNA LNP; set-up: species or system mouse; details: for FVII inhib %: ~48 h
Method in brief: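 Female CD-1 mice (~25 g) given a single i.v. tail-vein dose of FVII siRNA in LNPs (cationic, stealth, neutral lipids), dosed as mg siRNA/kg. Plasma collected ~48 h post-injection; FVII activity read against a standard curve from pooled vehicle-control plasma.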

[4] = Particle size and PDI by dynamic light scattering (Malvern Zetasizer); assay type: physicochemical
Method in brief: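 Nanoparticles diluted in PBS to a count rate of about 200-400 kcts and measured by dynamic light scattering; size given as intensity-weighted average diameter, with polydispersity index from the same measurement.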

[5] = dose 1 mg/kg siRNA i.v., lipid/DSPC/CHOL/AVANTI 880150P 50/28/18/4, N/P 3.43
[6] = dose 3 mg/kg siRNA i.v., lipid/DSPC/CHOL/AVANTI 880150P 50/28/18/4, N/P 3.43
[7] = dose 3 mg/kg siRNA i.v., lipid/no neutral lipid/CHOL/AVANTI 880150P 50/0/46/4, N/P 3.43
[8] = lipid/DSPC/CHOL/AVANTI 880150P 50/28/18/4, N/P 3.43
[9] = lipid/no neutral lipid/CHOL/AVANTI 880150P 50/0/46/4, N/P 3.43
[10] = lipid/no neutral lipid/CHOL/S006 60/0/37/3, N/P 3
[11] = lipid/no neutral lipid/CHOL/S010 60/0/37/3, N/P 3
[12] = LNP formulation with PLK1 siRNA, helper, neutral and stealth lipid, molar ratio and N/P as in the table
[13] = lipid/no neutral lipid/CHOL/GM-020 NOF 60/0/34/6, N/P 3
[14] = lipid/no neutral lipid/CHOL/GM-020 NOF 60/0/36/4, N/P 3
[15] = lipid/no neutral lipid/CHOL/GM-020 NOF 60/0/38/2, N/P 3

## CCCCC/C=C\C/C=C\CCCCCCCCOCC(CN1CCC(OC)C1)OCCOCCO[C@H]1CC[C@@]2(C)C(=CC[C@H]3[C@@H]4CC[C@H]([C@H](C)CCCC(C)C)[C@@]4(C)CC[C@@H]32)C1 (stereo partly shown) [E0024]
[1]; 1 × 10 mg siRNA/kg
  PLK1 inhibition %: 15%
[1]; 4 × 5 mg siRNA/kg
  PLK1 inhibition %: 23%
[2]; pKa
  pKa: 6.62
[3]; [5]
  FVII inhib %: 85.3%
[3]; dose 1 mg/kg siRNA i.v., lipid/no neutral lipid/CHOL/AVANTI 880150P 50/0/46/4, N/P 3.43
  FVII inhib %: 95.7%
[3]; dose 1 mg/kg siRNA i.v., lipid/no neutral lipid/CHOL/S006 60/0/37/3, N/P 3
  FVII inhib %: 83.8%
[3]; dose 1 mg/kg siRNA i.v., lipid/no neutral lipid/CHOL/S010 60/0/37/3, N/P 3
  FVII inhib %: 72.2%
[3]; [6]
  FVII inhib %: 99.9%
[3]; [7]
  FVII inhib %: 99.5%
[4]; LNP formulation with PLK1 siRNA, helper, neutral and stealth lipid, molar ratio and N/P as in the table, stealth lipid S004, molar ratio 60/38/0/2, N/P 3
  Final size (nm): 120.6 nm
[4]; LNP formulation with PLK1 siRNA, helper, neutral and stealth lipid, molar ratio and N/P as in the table, stealth lipid S011, molar ratio 40/48/10/2, N/P 3
  Final size (nm): 88.46 nm
[4]; [8]
  Final size (nm): 100 nm
  PDI: 0.148
[4]; [9]
  Final size (nm): 149 nm and 125 nm
  PDI: 0.092 and 0.08
[4]; [10]
  Final size (nm): 98.53 nm
  PDI: 0.12
[4]; [11]
  Final size (nm): 96.09 nm
  PDI: 0.137

## CCCCC/C=C\C/C=C\CCCCCCCCOCC(CN1CCCCC1)OCCOCCO[C@H]1CC[C@@]2(C)C(=CCC3C2CC[C@@]2(C)C3CC[C@@H]2[C@H](C)CCCC(C)C)C1 (stereo partly shown) [E0014]
[1]; 1 × 10 mg siRNA/kg
  PLK1 inhibition %: 22%
[2]
  pKa: 6.4
[2]; pKa
  pKa: 6.4
[3]; [5]
  FVII inhib %: 72.1%
[3]; dose 1 mg/kg siRNA i.v., lipid/no neutral lipid/CHOL/GM-020 NOF 60/0/34/6, N/P 3
  FVII inhib %: 25%
[3]; dose 1 mg/kg siRNA i.v., lipid/no neutral lipid/CHOL/GM-020 NOF 60/0/36/4, N/P 3, 1 mg/kg
  FVII inhib %: 68.5% and 37.6%
[3]; dose 1 mg/kg siRNA i.v., lipid/no neutral lipid/CHOL/GM-020 NOF 60/0/38/2, N/P 3
  FVII inhib %: 71.5%
[3]; dose 3 mg/kg siRNA i.v., lipid/DSPC/CHOL/AVANTI 880150P 50/28/18/4, N/P 3.43, 3 mg/kg
  FVII inhib %: 98.6% and 95.8%
[3]; [7]
  FVII inhib %: 97.4%
[3]; dose 3 mg/kg siRNA i.v., lipid/no neutral lipid/CHOL/GM-020 NOF 60/0/34/6, N/P 3
  FVII inhib %: 96.6%
[3]; dose 3 mg/kg siRNA i.v., lipid/no neutral lipid/CHOL/GM-020 NOF 60/0/36/4, N/P 3
  FVII inhib %: 94%
[3]; dose 3 mg/kg siRNA i.v., lipid/no neutral lipid/CHOL/GM-020 NOF 60/0/38/2, N/P 3
  FVII inhib %: 96.2%
[3]; formulation containing the cationic lipid, RNAi construct specific to Factor VII, liver
  in vivo Factor VII inhibition: 97.4%
[4]; [12]
  Final size (nm): 82.21 nm
[4]; [8]
  Final size (nm): 104 nm and 95 nm
  PDI: 0.151 and 0.148
[4]; [9]
  Final size (nm): 148 nm
  PDI: 0.05
[4]; [13]
  Final size (nm): 85.8 nm
  PDI: 0.106
[4]; [14]
  Final size (nm): 101.5 nm and 94.6 nm
  PDI: 0.182 and 0.092
[4]; [15]
  Final size (nm): 141 nm
  PDI: 0.122

## CCCCC/C=C\C/C=C\CCCCCCCCOCC(CN1CCC(C)CC1)OCCOCCO[C@H]1CC[C@@]2(C)C(=CC[C@H]3[C@@H]4CC[C@H]([C@H](C)CCCC(C)C)[C@@]4(C)CC[C@@H]32)C1 (stereo partly shown) [E0008]
[1]; 1 × 1 mg siRNA/kg
  PLK1 inhibition %: 38%
[1]; 1 × 5 mg siRNA/kg
  PLK1 inhibition %: 85%
[2]; pKa
  pKa: 5.81
[3]; [6]
  FVII inhib %: 73%
[3]; [7]
  FVII inhib %: 84.5%
[4]; LNP formulation with PLK1 siRNA, helper, neutral and stealth lipid, molar ratio and N/P as in the table, stealth lipid S004, molar ratio 60/38/2, N/P 4
  Final size (nm): 123.1 nm
[4]; LNP formulation with PLK1 siRNA, helper, neutral and stealth lipid, molar ratio and N/P as in the table, stealth lipid S011, molar ratio 60/38/2, N/P 4
  Final size (nm): 93.11 nm
[4]; [8]
  Final size (nm): 85 nm
  PDI: 0.168
[4]; [9]
  Final size (nm): 84 nm
  PDI: 0.214

## CCCCCCCC/C=C\CCCCCCCCOCC(CN1CCCCC1)OCCOC(=O)CCCC(=O)O[C@H]1CC[C@@]2(C)C(=CC[C@H]3[C@@H]4CC[C@H]([C@H](C)CCCC(C)C)[C@@]4(C)CC[C@@H]32)C1 (stereo partly shown) [E0151]
[1]; 1 × 0.1 mg siRNA/kg
  PLK1 inhibition %: 7%
[1]; 1 × 1 mg siRNA/kg
  PLK1 inhibition %: 25%
[2]; pKa
  pKa: 6.06
[4]; [12]
  Final size (nm): 103.8 nm

## CCCCCCCC/C=C\CCCCCCCCOCC(CN1CCOCC1)OCCOCCOC(=O)CCC(=O)O[C@H]1CC[C@@]2(C)C(=CC[C@H]3[C@@H]4CC[C@H]([C@H](C)CCCC(C)C)[C@@]4(C)CC[C@@H]32)C1 (stereo partly shown) [E0152]
[1]; 1 × 1 mg siRNA/kg
  PLK1 inhibition %: 18%
[2]; pKa
  pKa: 5.38
[4]; [12]
  Final size (nm): 121.3 nm

## CCCCCCCC/C=C\CCCCCCCCOCC(CN1CCOCC1)OCCOC(=O)CO[C@H]1CC[C@@]2(C)C(=CCC3[C@@H]4CC[C@H]([C@H](C)CCCC(C)C)[C@@]4(C)CC[C@@H]32)C1 (stereo partly shown) [E0128]
[1]; 1 × 1 mg siRNA/kg
  PLK1 inhibition %: 23%
[2]; pKa
  pKa: 5.01
[4]; [12]
  Final size (nm): 83.47 nm

## CCCCCCCC/C=C\CCCCCCCCOCC(CN1CCOCC1)OCCOCC(=O)OC1CC[C@@]2(C)C(=CCC3C2CC[C@@]2(C)C3CC[C@@H]2[C@H](C)CCCC(C)C)C1 (stereo partly shown) [E0167]
[1]; 1 × 1 mg siRNA/kg
  PLK1 inhibition %: 23%
[2]; pKa
  pKa: 5.21
[4]; [12]
  Final size (nm): 86.57 nm
